# Measured values reported in US5840684A, “Glycopeptide antibiotic derivatives” (Eli Lilly and Company, priority 1995, dated 1998).
# Tests used:
# [1] = system: Leuconostoc citreum; assay: agar dilution MIC, lactic acid bacteria; format: cell-based; settings: brain-heart infusion agar
# [2] = system: Staphylococcus epidermidis 270; assay: broth micro-dilution MIC; format: cell-based
# Experimental: (§1) The formula I compounds have in vitro and in vivo activity against Gram-positive pathogenic bacteria. The MIC's were determined using a standard broth micro-dilution assay.
# [3] = system: Staphylococcus haemolyticus 105; assay: broth micro-dilution MIC; format: cell-based
# Experimental: as §1
# [4] = system: Streptococcus pneumoniae P1; assay: broth micro-dilution MIC; format: cell-based
# Experimental: as §1
# [5] = system: Staphylococcus haemolyticus 415; assay: broth micro-dilution MIC; format: cell-based
# Experimental: as §1
# [6] = system: Entercoccus faecium 180; assay: broth micro-dilution MIC; format: cell-based; settings: Entercoccus faecium 180
# Experimental: as §1
# [7] = system: Entercoccus faecium 2041; assay: broth micro-dilution MIC; format: cell-based; settings: Entercoccus faecium 2041
# Experimental: as §1
# [8] = system: Leuconostoc pseudomesenteroides; assay: agar dilution MIC, lactic acid bacteria; format: cell-based; settings: brain-heart infusion agar
# [9] = system: vancomycin-resistant enterococci; assay: broth micro-dilution, mean geometric MIC; format: cell-based, Enterococcus faecium and Enterococcus faecalis; settings: enterococci, 24-hour incubation
# [10] = system: Stapylococcus aureus; assay: mouse protection, experimentally-induced infection; format: in vivo; settings: mice infected with Stapylococcus aureus, two doses
# [11] = system: vancomycin-susceptible enterococci; assay: broth micro-dilution, mean geometric MIC; format: cell-based, Enterococcus faecium and Enterococcus faecalis; settings: enterococci, 24-hour incubation
# [12] = system: Streptococcus pneumoniae; assay: mouse protection, experimentally-induced infection; format: in vivo; settings: mice infected with Streptococcus pneumoniae, two doses
# [13] = system: Staphylococcus aureus SA1199B; format: cell-based
# Experimental: (§2) The MIC's were determined using a standard broth micro-dilution assay.
# [14] = system: Staphylococcus aureus S13E; format: cell-based
# Experimental: as §2
# [15] = system: Staphylococcus aureus SA1199A; assay: broth micro-dilution MIC; format: cell-based
# Experimental: as §2
# [16] = system: Staphylococcus aureus SA1199; assay: broth micro-dilution MIC; format: cell-based
# Experimental: as §2
# [17] = system: Entercoccus faecium 276; assay: broth micro-dilution MIC; format: cell-based
# Experimental: as §2
# [18] = system: Staphylococcus aureus 447; assay: broth micro-dilution MIC; format: cell-based
# Experimental: as §2
# [19] = system: Staphylococcus aureus 489; assay: broth micro-dilution MIC; format: cell-based
# Experimental: as §2
# [20] = system: Entercoccus faecium 180-1; assay: broth micro-dilution MIC; format: cell-based
# Experimental: as §2
# [21] = system: Staphylococcus aureus X778; assay: broth micro-dilution MIC; format: cell-based
# Experimental: as §2
# [22] = system: Staphylococcus aureus X400; assay: broth micro-dilution MIC; format: cell-based
# Experimental: as §2
# [23] = system: Pediococcus pentosaceus; assay: agar dilution MIC, lactic acid bacteria; format: cell-based; settings: Pediococcus pentosaceus (mean of 2), brain-heart infusion agar
# [24] = system: Pediococcus acidilacti; assay: agar dilution MIC, lactic acid bacteria; format: cell-based; settings: Pediococcus acidilacti (mean of 10), brain-heart infusion agar
# [25] = system: Streptococcus pyogenes; assay: mouse protection, experimentally-induced infection; format: in vivo; settings: mice infected with Streptococcus pyogenes, two doses
# [26] = system: Leuconostoc mesenteroides; assay: agar dilution MIC, lactic acid bacteria; format: cell-based; settings: Leuconostoc mesenteroides (mean of 4), brain-heart infusion agar
# [27] = system: Enterococcus gallinarum 245; assay: broth micro-dilution MIC; format: cell-based; settings: Enterococcus gallinarum 245
# Experimental: as §1
# [28] = system: Streptococcus pyogenes C203; assay: broth micro-dilution MIC; format: cell-based
# Experimental: as §2
# [29] = system: Staphylococcus aureus 491; assay: broth micro-dilution MIC; format: cell-based
# Experimental: as §2
# [30] = system: Staphylococcus aureus 446; assay: broth micro-dilution MIC; format: cell-based
# Experimental: as §2
SMILES,MIC [2] [µg/mL],MIC [3] [µg/mL],MIC [4] [µg/mL],MIC [5] [µg/mL],MIC [6] [µg/mL],MIC [7] [µg/mL],"mean geometric MIC, Vancomycin Resistant Strains [9] [µg/mL]",ED50 [10] [mg/kg/2],"mean geometric MIC, Vancomycin Sensitive Strains [11] [µg/mL]",ED50 [12],MIC [14] [µg/mL],MIC [15] [µg/mL],MIC [16] [µg/mL],MIC [17] [µg/mL],MIC [18] [µg/mL],MIC [19] [µg/mL],MIC [20] [µg/mL],MIC [21] [µg/mL],ED50 [25] [mg/kg/2],MIC [27] [µg/mL],also measured
CNC(CC(C)C)C(=O)NC1C(=O)NC(CC(N)=O)C(=O)NC2C(=O)NC3C(=O)NC(C(=O)NC(C(=O)O)c4cc(O)cc(O)c4-c4cc3ccc4O)C(OC3CC(C)(N)C(O)C(C)O3)c3ccc(c(Cl)c3)Oc3cc2cc(c3OC2OC(CO)C(O)C(O)C2OC2CC(C)(NCc3cc(OCc4ccccc4)ccc3OC)C(O)C(C)O2)Oc2ccc(cc2Cl)C1O (centres unmarked) [Compound 51],0.5,0.5,≤ 0.06,1,0.5,≤ 0.06,0.84,0.16,0.22,0.036 mg/kg/2,0.5,≤ 0.06,0.5,≤ 0.06,0.5,≤ 0.06,≤ 0.06,0.5,0.057,,MIC [1]: > 128 µg/mL; MIC [8]: > 128 µg/mL; MIC [13]: 1 µg/mL; MIC [22]: ≤ 0.06 µg/mL; MIC [23]: 91 µg/mL; MIC [24]: 87 µg/mL; MIC [26]: 76 µg/mL
CCCCCc1ccc(-c2ccc(CNC3(C)CC(OC4C(Oc5c6cc7cc5Oc5ccc(cc5Cl)C(OC5CC(C)(N)C(O)C(C)O5)C5NC(=O)C(NC(=O)C7NC(=O)C(CC(N)=O)NC(=O)C(NC(=O)C(CC(C)C)NC)C(O)c7ccc(c(Cl)c7)O6)c6ccc(O)c(c6)-c6c(O)cc(O)cc6C(C(=O)O)NC5=O)OC(CO)C(O)C4O)OC(C)C3O)cc2)cc1 (centres unmarked) [Compound 22],4,,,,1,2,1.0,0.049,1.5,> .05 mg/kg/2,,4,,4,,8,≤ 0.06,8,> 0.5,1,MIC [28]: ≤ 0.06 µg/mL; MIC [29]: 8 µg/mL; MIC [22]: 8 µg/mL
CNC(CC(C)C)C(=O)NC1C(=O)NC(CC(N)=O)C(=O)NC2C(=O)NC3C(=O)NC(C(=O)NC(C(=O)O)c4cc(O)cc(O)c4-c4cc3ccc4O)C(OC3CC(C)(N)C(O)C(C)O3)c3ccc(c(Cl)c3)Oc3cc2cc(c3OC2OC(CO)C(O)C(O)C2OC2CC(C)(NCc3ccc(Oc4ccc([N+](=O)[O-])cc4)cc3)C(O)C(C)O2)Oc2ccc(cc2Cl)C1O (centres unmarked) [Compound 57],0.5,8,≤ 0.06,1,0.5,≤ 0.06,0.35,0.041,0.041,0.046 mg/kg/2,≤ 0.06,≤ 0.06,≤ 0.06,0.5,0.5,0.5,≤ 0.06,≤ 0.06,0.054,2,MIC [28]: ≤ 0.06 µg/mL
CNC(CC(C)C)C(=O)NC1C(=O)NC(CC(N)=O)C(=O)NC2C(=O)NC3C(=O)NC(C(=O)NC(C(=O)O)c4cc(O)cc(O)c4-c4cc3ccc4O)C(OC3CC(C)(N)C(O)C(C)O3)c3ccc(c(Cl)c3)Oc3cc2cc(c3OC2OC(CO)C(O)C(O)C2OC2CC(C)(NCc3ccc(OCc4ccccc4)c(OC)c3)C(O)C(C)O2)Oc2ccc(cc2Cl)C1O (centres unmarked) [Compound 52],0.5,0.5,≤ 0.06,1,2,0.5,0.59,0.052,0.11,0.074 mg/kg/2,0.5,≤ 0.06,2,0.125,≤ 0.06,0.5,≤ 0.06,0.5,0.046,1,MIC [1]: > 128 µg/mL; MIC [13]: 2 µg/mL; MIC [30]: ≤ 0.06 µg/mL; MIC [28]: ≤ 0.06 µg/mL; MIC [22]: ≤ 0.06 µg/mL; MIC [24]: 55 µg/mL; MIC [26]: 76 µg/mL
CNC(CC(C)C)C(=O)NC1C(=O)NC(CC(N)=O)C(=O)NC2C(=O)NC3C(=O)NC(C(=O)NC(C(=O)O)c4cc(O)cc(O)c4-c4cc3ccc4O)C(OC3CC(C)(N)C(O)C(C)O3)c3ccc(c(Cl)c3)Oc3cc2cc(c3OC2OC(CO)C(O)C(O)C2OC2CC(C)(NCc3ccc(OCc4ccccc4)c(OCc4ccccc4)c3)C(O)C(C)O2)Oc2ccc(cc2Cl)C1O (centres unmarked) [Compound 53],2,2,≤ 0.06,2,1,1,0.35,0.077,0.25,0.071 mg/kg/2,2,,2,8,4,,2,2,0.16,2,MIC [13]: 2 µg/mL; MIC [30]: 2 µg/mL; MIC [28]: ≤ 0.06 µg/mL; MIC [29]: 2 µg/mL
CNC(CC(C)C)C(=O)NC1C(=O)NC(CC(N)=O)C(=O)NC2C(=O)NC3C(=O)NC(C(=O)NC(C(=O)O)c4cc(O)cc(O)c4-c4cc3ccc4O)C(OC3CC(C)(N)C(O)C(C)O3)c3ccc(c(Cl)c3)Oc3cc2cc(c3OC2OC(CO)C(O)C(O)C2OC2CC(C)(NCc3cccc4c3OCO4)C(O)C(C)O2)Oc2ccc(cc2Cl)C1O (centres unmarked) [Compound 58],4,4,≤ 0.06,8,8,0.5,5.7,,0.76,,≤ 0.06,≤ 0.06,≤ 0.06,0.5,1,≤ 0.06,,≤ 0.06,,0.4,MIC [1]: 128 µg/mL; MIC [8]: 128 µg/mL; MIC [28]: ≤ 0.06 µg/mL; MIC [22]: ≤ 0.06 µg/mL; MIC [24]: 55 µg/mL
